In assay [1] the test system is DBA/1 mice with collagen-induced arthritis. In words: Collagen-induced arthritis mouse model: clinical score, histology, safety. The format is in vivo. The conditions noted are these: CIA mice; 30 mg/kg; model group 3.8; grades 0-4. As for the experimental part:
The animal protocol was approved by the Animal Care and Use Committee of Sichuan University in China (IACUC number: 20100318). DBA/1 J mice (male, 6 weeks old) were obtained from Jackson Laboratory (Bar Harbor, ME). One day before the start of the experiment, CII solution (2 mg/ml) was prepared with 0.05 M acetic acid and stored at 4 °C. Just before the immunization, equal volumes of IFA and CII were mixed by a homogenizer in a precooled glass bottle in an ice water bath. Arthritis was induced in 8-week old male DBA/1 mice by immunizations with a 1:1 emulsion of bovine type II collagen (Chondrex) and Freund’s complete adjuvant (Sigma-Aldrich) on day 0 and with a 1:1 emulsion of bovine type II collagen in Freund’s incomplete adjuvant (Sigma-Aldrich) on day 21. […] On the day treatment was initiated, the mice were randomly assigned to controls (no collagen injection plus vehicle; […]. Mice were scored daily for signs of arthritis for 33 days. CIA development was inspected three times per week, and the inflammation of the four paws was graded from 0 to 4 (grade 0, paws with no swelling or focal redness; grade 1, paws with swelling of finger joints; grade 2, paws with a mild swelling of the ankle or wrist joints; grade 3, paws with severe inflammation of the entire paw; and grade 4, paws with deformity or ankylosis). Each paw was graded, and the four scores were totalled so that the possible maximum score per mouse was 16.
DBA1/J mice were sacrificed on day 33 after treatment and ankle joints were removed and fixed with 4% paraformaldehyde for more than 48 h. The joints were decalcified in EDTA buffer for 21 days and then embedded in paraffin blocks. Joint sections were stained with H&E or safranin O-fast green. Histological changes were examined under microscope using methods modified from McKew et al.[43] as follows: grade 0 = no abnormal findings; grade 1 = synoviocyte hypertrophy, slight synovial membrane fibrosis, slight-to-mild inflammatory cell infiltrates into the synovial membrane/articular capsule and/or joint space; grade 2 = grade 1 plus mild-to-moderate inflammatory cell infiltrates, pannus formation (if present) minimal with superficial cartilage erosion; grade 3 = grade 2 plus marked inflammatory cell infiltrates and fibrosis, mild-to-severe erosion of the cartilage extending into the subchondral bone; and grade 4 = loss of joint integrity through erosion or destruction with bone remodelling, massive inflammatory cell infiltrates, fibrosis, and ankylosis.

The subject of assay [2] is cytokine gene transcription in joint tissue of CIA mice. As to the kind of experiment: Cytokine gene expression in joints of CIA mice by RT-PCR. It is filed as in vivo, mouse.

Regarding `C[C@@H]1CCN(C(=O)CC#N)C[C@@H]1N(C)c1ncnc2[nH]ccc12` [Tofacitinib, reference compound], in assay [1], the “group mean histological severity score” value came out at 1.8. For the same compound, the IL-10 expression entry in assay [2] is on record as “significantly increased its expression”.
